From ChEMBL document CHEMBL5291721, “A preclinical secondary pharmacology resource illuminates target-adverse drug reaction associations of marketed drugs” (Nat Commun, 2023)
One block for each compound: values may come before it.

What was measured:
[1] = target: Type-2 angiotensin II receptor (Homo sapiens, UniProt P50052); assay type: functional
D(1A) dopamine receptor = D(1A) dopamine receptor (Homo sapiens, UniProt P21728)
[2] = target: Gamma-aminobutyric acid receptor subunit alpha-1 (Rattus norvegicus, UniProt P62813)
Gamma-aminobutyric acid receptor subunit alpha-1, sequence (P62813 whole entry): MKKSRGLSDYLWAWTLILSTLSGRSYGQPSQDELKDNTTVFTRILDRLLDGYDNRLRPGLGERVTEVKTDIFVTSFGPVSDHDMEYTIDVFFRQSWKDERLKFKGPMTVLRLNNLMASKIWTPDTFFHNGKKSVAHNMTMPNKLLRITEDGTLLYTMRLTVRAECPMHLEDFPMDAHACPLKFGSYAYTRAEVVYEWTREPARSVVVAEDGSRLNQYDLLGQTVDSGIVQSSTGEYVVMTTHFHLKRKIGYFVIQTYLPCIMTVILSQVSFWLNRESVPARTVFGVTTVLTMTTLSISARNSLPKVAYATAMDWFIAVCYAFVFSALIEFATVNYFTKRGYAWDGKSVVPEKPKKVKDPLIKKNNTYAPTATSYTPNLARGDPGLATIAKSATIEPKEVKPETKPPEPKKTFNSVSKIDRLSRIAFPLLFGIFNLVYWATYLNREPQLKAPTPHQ

[3] = target: T1, Alpha-1A adrenergic receptor (Homo sapiens, UniProt P35348); assay type: functional, cell-based
T1 sequence (P35348 whole entry): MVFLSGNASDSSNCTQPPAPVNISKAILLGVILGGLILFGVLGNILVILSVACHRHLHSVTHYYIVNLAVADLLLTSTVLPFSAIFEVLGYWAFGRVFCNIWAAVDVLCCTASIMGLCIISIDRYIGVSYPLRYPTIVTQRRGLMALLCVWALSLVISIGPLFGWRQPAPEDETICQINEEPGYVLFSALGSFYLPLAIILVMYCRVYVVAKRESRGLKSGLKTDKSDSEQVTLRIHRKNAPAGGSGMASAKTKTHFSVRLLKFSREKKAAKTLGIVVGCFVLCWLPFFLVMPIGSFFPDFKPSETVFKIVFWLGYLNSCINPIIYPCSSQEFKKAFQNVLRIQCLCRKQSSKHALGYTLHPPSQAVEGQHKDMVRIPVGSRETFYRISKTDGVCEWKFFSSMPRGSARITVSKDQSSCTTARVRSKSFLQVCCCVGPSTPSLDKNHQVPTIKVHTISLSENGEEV

Adenosine receptor A3 = target: T2, Adenosine receptor A3 (Homo sapiens, UniProt P0DMS8)
T2 sequence (P0DMS8 whole entry): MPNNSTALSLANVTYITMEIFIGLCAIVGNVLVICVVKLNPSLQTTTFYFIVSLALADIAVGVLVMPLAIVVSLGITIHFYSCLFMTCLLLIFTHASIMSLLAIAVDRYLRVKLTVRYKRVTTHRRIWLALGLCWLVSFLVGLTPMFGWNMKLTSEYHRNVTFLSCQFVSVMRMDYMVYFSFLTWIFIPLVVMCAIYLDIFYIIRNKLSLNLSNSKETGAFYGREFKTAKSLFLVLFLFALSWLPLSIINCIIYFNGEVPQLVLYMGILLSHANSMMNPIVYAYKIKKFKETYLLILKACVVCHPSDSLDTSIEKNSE

[4] = target: T3, Amine oxidase [flavin-containing] A (Homo sapiens, UniProt P21397); assay type: functional
T3 sequence (P21397 whole entry): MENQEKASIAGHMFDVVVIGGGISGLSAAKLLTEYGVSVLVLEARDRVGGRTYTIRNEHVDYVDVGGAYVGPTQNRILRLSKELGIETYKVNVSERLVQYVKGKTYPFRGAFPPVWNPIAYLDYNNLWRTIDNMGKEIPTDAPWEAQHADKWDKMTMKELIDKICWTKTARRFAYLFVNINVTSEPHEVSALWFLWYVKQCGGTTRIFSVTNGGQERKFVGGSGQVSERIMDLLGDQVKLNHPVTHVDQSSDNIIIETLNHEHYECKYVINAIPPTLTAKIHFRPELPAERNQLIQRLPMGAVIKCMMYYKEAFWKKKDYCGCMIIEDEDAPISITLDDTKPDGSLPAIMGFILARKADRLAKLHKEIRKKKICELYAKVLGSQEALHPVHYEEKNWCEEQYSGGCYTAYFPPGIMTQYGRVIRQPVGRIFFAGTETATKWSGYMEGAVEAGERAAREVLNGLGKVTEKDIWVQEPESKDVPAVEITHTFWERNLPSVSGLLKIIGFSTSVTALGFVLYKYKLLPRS

Androgen receptor = target: T4, Androgen receptor (Homo sapiens, UniProt P10275)
T4 sequence (P10275 whole entry): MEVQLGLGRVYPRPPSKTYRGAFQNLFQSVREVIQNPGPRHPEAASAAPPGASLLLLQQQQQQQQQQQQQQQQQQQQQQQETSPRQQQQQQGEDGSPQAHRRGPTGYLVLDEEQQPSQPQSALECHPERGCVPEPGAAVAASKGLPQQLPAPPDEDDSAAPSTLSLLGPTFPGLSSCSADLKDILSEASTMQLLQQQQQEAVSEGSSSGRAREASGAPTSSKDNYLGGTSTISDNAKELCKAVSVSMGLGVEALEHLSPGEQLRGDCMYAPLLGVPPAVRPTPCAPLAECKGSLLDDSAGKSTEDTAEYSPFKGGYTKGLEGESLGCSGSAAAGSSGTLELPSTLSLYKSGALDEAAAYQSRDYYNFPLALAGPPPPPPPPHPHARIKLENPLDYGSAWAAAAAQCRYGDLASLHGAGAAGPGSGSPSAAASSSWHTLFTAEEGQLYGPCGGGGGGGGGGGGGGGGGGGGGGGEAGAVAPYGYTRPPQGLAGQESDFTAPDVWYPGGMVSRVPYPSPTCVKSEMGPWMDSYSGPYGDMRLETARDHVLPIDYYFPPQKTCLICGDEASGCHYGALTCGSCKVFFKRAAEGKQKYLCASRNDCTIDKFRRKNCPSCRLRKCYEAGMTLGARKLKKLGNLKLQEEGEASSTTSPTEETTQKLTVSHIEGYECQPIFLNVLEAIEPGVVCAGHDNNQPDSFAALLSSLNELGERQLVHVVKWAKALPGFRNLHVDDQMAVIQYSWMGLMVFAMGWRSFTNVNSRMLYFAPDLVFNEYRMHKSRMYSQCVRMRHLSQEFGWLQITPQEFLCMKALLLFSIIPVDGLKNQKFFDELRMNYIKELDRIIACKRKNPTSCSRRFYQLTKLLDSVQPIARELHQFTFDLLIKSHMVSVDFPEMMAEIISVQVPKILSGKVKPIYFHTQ
Also: assay procedure not described here.

Type-2 angiotensin II receptor, sequence (P50052 whole entry): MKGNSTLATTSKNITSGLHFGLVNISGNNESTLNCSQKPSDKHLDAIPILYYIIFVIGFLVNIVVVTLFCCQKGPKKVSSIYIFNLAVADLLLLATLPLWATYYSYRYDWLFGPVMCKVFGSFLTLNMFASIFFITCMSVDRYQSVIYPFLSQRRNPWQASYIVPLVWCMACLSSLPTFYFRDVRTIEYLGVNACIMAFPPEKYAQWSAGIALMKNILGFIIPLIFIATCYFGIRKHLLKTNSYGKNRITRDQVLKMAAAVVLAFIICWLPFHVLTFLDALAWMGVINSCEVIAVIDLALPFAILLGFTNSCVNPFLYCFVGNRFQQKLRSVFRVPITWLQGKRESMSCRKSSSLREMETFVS
D(1A) dopamine receptor, sequence (P21728 whole entry): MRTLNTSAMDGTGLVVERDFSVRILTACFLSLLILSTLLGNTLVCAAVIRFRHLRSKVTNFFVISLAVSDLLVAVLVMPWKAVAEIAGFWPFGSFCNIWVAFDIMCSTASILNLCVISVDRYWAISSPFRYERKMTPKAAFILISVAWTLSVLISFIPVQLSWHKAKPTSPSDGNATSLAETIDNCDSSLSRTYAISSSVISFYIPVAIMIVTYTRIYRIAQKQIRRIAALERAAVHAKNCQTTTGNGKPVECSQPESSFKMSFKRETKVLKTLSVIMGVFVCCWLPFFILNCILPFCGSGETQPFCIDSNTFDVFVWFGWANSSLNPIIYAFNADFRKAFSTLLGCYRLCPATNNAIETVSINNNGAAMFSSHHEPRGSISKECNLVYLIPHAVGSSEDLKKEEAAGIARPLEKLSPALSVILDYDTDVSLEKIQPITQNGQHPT

Compound: Cc1c(O)c(=O)ccn1C [DEFERIPRONE]
AC50 [1]: > 100 µM

AC50 (D(1A) dopamine receptor): 12 µM
Compound: CCN1CCC[C@H]1CNC(=O)c1cc(S(N)(=O)=O)ccc1OC [LEVOSULPIRIDE]

Compound: Nc1nc2ccc(OC(F)(F)F)cc2s1 [RILUZOLE]
AC50 [2]: > 30 µM
AC50 [3]: > 30 µM
AC50 (Adenosine receptor A3): 29.2 µM
AC50 [4]: > 30 µM

AC50 (Androgen receptor): > 30 µM
AC50 [2]: > 30 µM
AC50 [4]: > 30 µM
Compound: BIVALIRUDIN
